Values quoted from earlier work in US7517693B2, “Method and apparatus for determining a molecular descriptor of absorption for a candidate compound” (North Carolina State University, priority 2002, dated 2009).

Columns and labels:
[1] = Table III calibration compounds, known literature descriptor
[2] = Table IV study compounds

| SMILES | logKo/w [2] | further results |
| --- | --- | --- |
| O=[N+]([O-])c1ccc(O)cc1 [4-Nitrophenol] | 1.91 | logL^16 (solute gas-hexadecane partition coefficient) ([1]; 25° C.): 5.876; α (effective solute H-bond acidity) [1]: 0.82; β (effective solute H-bond basicity) [1]: 0.26; π (effective solute dipolarity and polarizability) [1]: 1.72 |
| C1COCCO1 [1,4-dioxane] | −0.27 |  |
| CCC[N+](=O)[O-] [1-nitropropane] | 0.87 |  |
| ClC1=C(Cl)C2(Cl)C3C4OC4C(Cl)C3C1(Cl)C2(Cl)Cl (centres unmarked) [heptachlor epoxide] | 4.98 |  |
| CCOP(=S)(OCC)Oc1ccc([N+](=O)[O-])cc1 [Parathion] | 3.83 |  |
| O=S1OCC2C(CO1)C1(Cl)C(Cl)=C(Cl)C2(Cl)C1(Cl)Cl (centres unmarked) [endosulfan II] | 3.83 |  |
| O=C(O)c1ccccc1O [salicylic acid] | 2.26 |  |
| CCCCCCCCCCCCN1CCCCCC1=O [Laurocapram] | 6.28 |  |
| Cc1cccc(O)c1 [m-cresol] | 1.95 |  |
| COc1ccc(C(c2ccc(OC)cc2)C(Cl)(Cl)Cl)cc1 [Methoxychlor] | 5.08 |  |
